Data as given in patent US20050203191A1, “1-Aminocyclohexane derivatives for the treatment of agitation and other behavioral disorders, especially those associated with alzheimer's disease” (priority 2004, published 2005).

Tested on: moderate to severe Alzheimer's patients treated with ongoing donepezil therapy
Experiment: MD-02 (Therapy Example 2): 24-week double-blind placebo-controlled trial of memantine added to ongoing donepezil
Assay type: in vivo, human
Conditions: MD-02, on donepezil, week 24, ITT LOCF
Experimental: A 24 week, double-blind, placebo-controlled trial was conducted in moderate to severe Alzheimer's patients (N=404) treated with ongoing donepezil therapy and randomized to memantine or placebo. Behavioral symptoms were assessed using the NPI administered at baseline, Week 12 and the final visit (Week 24). The trial already had established benefits of memantine on functional, cognitive, and global measures. The statistical analysis was based on the ITT population using the last observation carried forward (LOCF) and observed case (OC) approaches.
This study enrolled four hundred and four patients diagnosed with probable AD according to the National Institute of Neurological and Communicative Disorders and Stroke—Alzheimer's Disease and Related Disorders Association (NINCDS-ADRDA) criteria with moderate to severe stages of illness. Inclusion criteria were as follows: Mini-Mental State Examination (MMSE) score of 5-14 at screening and at baseline; minimum age of 50 years; a recent MRI or CT scan consistent with a diagnosis of probable AD; on AChEI therapy, which was defined by the protocol to be donepezil, for more than 6 months prior to entrance into the trial and at a stable dose (5-10 mg/day) for at least 3 months prior to entrance in the trial; a knowledgeable and reliable caregiver to accompany the patient to research visits and oversee the administration of the investigational agent during the trial; residence in the community; ambulatory or ambulatory-aided (i.e. walker or cane) ability; and stable medical condition.
Patients were excluded for clinically significant reasons; B12 or folate deficiency; active pulmonary, gastrointestinal, renal, hepatic, endocrine, or cardiovascular disease; other psychiatric or central nervous system disorders; CT or MRI evidence of clinically significant central nervous system disorders other than probable AD; dementia complicated by other organic disease; or a modified Hachinski Ischemia Score30 greater than 4 at screening.
This was a prospective, randomized, placebo-controlled, parallel-arm, fixed-dose trial in which participants were assigned to double-blind treatment for 24 weeks with a 1-2 week single-blind, placebo lead-in phase prior to randomization. The initial dose of memantine was 5 mg/day with escalation to 20 mg/day over the first 3 weeks of double-blind treatment. All patients were to maintain their protocol-defined AChEI therapy at entry dose for the duration of the study. From week 3 to the end of week 8 of double-blind treatment, transient dosage adjustments for memantine treatment were permitted for patients experiencing dose-limiting adverse events. All memantine-treated patients were required to receive the target dose of 20 mg/day by the end of week 8, and patients not tolerating the target dose at that time were discontinued.
Patients were randomly allocated in permuted blocks of four to one of the two treatment. Blinded study medication was supplied to each study site for dispensation in blister packs at each visit. No unblinding occurred during the trial. Compliance monitoring was conducted via pill counts, and over 95% of both treatment groups had >75% compliance (95% for the placebo/AChEI treatment group and 96.5% for the memantine/AChEI treatment group).
Cognitive, functional, global, and behavioral outcome measures were obtained at screening, baseline, and at the end of weeks 4, 8, 12, 18, and 24. […] The efficacy parameters were the change from baseline on the SIB, a modified ADCS-ADL Inventory score at week 24, and the NPI. The 12-item version of the NPI was used here, with a total score ranging from 0-144. Higher scores reflect greater symptomatology. The NPI was assessed at baseline, at the end of week 12, and at the final visit.
Three populations were considered in the statistical analyses. […]

[1] = NPI total score ≧=75% (top quartile)
[2] = antipsychotics usage “YES” (N = n)
[3] = antipsychotics usage “YES” (N = y)
[4] = baseline NPI agitation score <4
[5] = baseline NPI agitation score ≧=4

CC12CC3CC(C)(C1)CC(N)(C3)C2 [memantine, 1-amino-3,5-dimethyl adamantane]
ADCS-ADL (change) LS Mean Diff., MEM v. PLA (NPI total score <75%): 1.17
ADCS-ADL (change) mean (NPI total score <75%): −1.6
CIBIC-PLUS Raw Mean Diff., MEM v. PLA (NPI total score <75%): −0.2
CIBIC-PLUS mean (NPI total score <75%): 4.4
SIB (change) LS Mean Diff., MEM v. PLA (NPI total score <75%): 2.5
SIB (change) mean (NPI total score <75%): 0.9
ADCS-ADL (change) LS Mean Diff., MEM v. PLA [1]: 1.73
ADCS-ADL (change) mean [1]: −2.6
CIBIC-PLUS Raw Mean Diff., MEM v. PLA [1]: −0.3
CIBIC-PLUS mean [1]: 4.4
SIB (change) LS Mean Diff., MEM v. PLA [1]: 6.1
SIB (change) mean [1]: −1.4
ADCS-ADL (change) LS Mean Diff., MEM v. PLA (NPI total score ≧=75% (top quartile), listed as MEM): −1.73
ADCS-ADL (change) LS Mean Diff., MEM v. PLA [2]: 0.9
ADCS-ADL (change) mean [2]: −1.8
CIBIC-PLUS Raw Mean Diff., MEM v. PLA [2]: −0.08
CIBIC-PLUS mean [2]: 4.45
SIB (change) LS Mean Diff., MEM v. PLA [2]: 1.7
SIB (change) mean [2]: 0.3
ADCS-ADL (change) LS Mean Diff., MEM v. PLA [3]: 3.6
ADCS-ADL (change) mean [3]: −2.1
CIBIC-PLUS Raw Mean Diff., MEM v. PLA [3]: −1.18
CIBIC-PLUS mean [3]: 4.17
SIB (change) LS Mean Diff., MEM v. PLA [3]: 12.4
SIB (change) mean [3]: 5.2
ADCS-ADL (change) LS Mean Diff., MEM v. PLA [4]: 1.2
ADCS-ADL (change) mean [4]: −1.8
CIBIC-PLUS Raw Mean Diff., MEM v. PLA [4]: −0.3
CIBIC-PLUS mean [4]: 4.4
SIB (change) LS Mean Diff., MEM v. PLA [4]: 3.6
SIB (change) mean [4]: 1.0
SIB (change) LS Mean Diff., MEM v. PLA (baseline NPI agitation score <4, listed as MEM): 3.4
ADCS-ADL (change) LS Mean Diff., MEM v. PLA [5]: 2.1
ADCS-ADL (change) mean [5]: −2.0
CIBIC-PLUS Raw Mean Diff., MEM v. PLA [5]: −0.1
SIB (change) LS Mean Diff., MEM v. PLA [5]: 3.8
SIB (change) mean [5]: 1.1
ADCS-ADL (change) LS mean (overall): −2.00
CIBIC-PLUS LS mean (overall): 4.41
SIB (change) LS mean (overall): 0.90
ADCS-ADL (change) LS Mean Diff., MEM v. PLA (overall, listed as MEM): −1.40
CIBIC-PLUS Raw Mean Diff., MEM v. PLA (overall, listed as MEM): −0.25
SIB (change) LS Mean Diff., MEM v. PLA (overall, listed as MEM): −3.40
